The text below walks through data of US11554171B2, “Compounds and methods for the targeted degradation of bromodomain-containing proteins” (Arvinas Operations, Inc., priority 2015, dated 2023).

Broadly, the DC50 is the midpoint of the concentration-degradation curve.

For the assay, the system named is c-myc in 22RV-1 cells. The assay can be described thus: Human c-myc ELISA assay. It counts as cell-based. To be noted: Homo sapiens; for Emax: 22Rv1, 18 h, read-out: Degradation of BRD4: Maximum inhibition (%) c-Myc ELISA in 22RV1 cells; for DC50: 22Rv1, read-out: Degradation of BRD4: DC50 (uM) c-Myc ELISA in 22RV1 cells. The method, then: 22RV-1 cells are seeded at 30,000 cells/well at a volume of 75 μL/well in RPMI+10% FBS media in 96-well plates and grown overnight at 37 C. Cells are dosed with compounds at 4× concentration diluted in 0.4% DMSO; compounds are serially diluted 1:3 for 8-point dose curve. 25 ul of compounds is added to cells for a final concentration starting at 300 nM-0.3 nM or 1 uM-1 nM in 0.1% DMSO and incubated for 18 hrs. Media is aspirated, cells washed 1× with PBS and aspirated. Cells are lysed in 50 ul RIPA buffer (50 mM Tris pH8, 150 mM NaCl, 1% Tx-100, 0.1% SDS, 0.5% sodium deoxycholate) supplemented with protease and phosphatase inhibitors. Plates are incubated on ice for 15 minutes then centrifuged at 4 C for 10 min at 4000 rpm. Add 50 ul of cleared lysate from 96-well assay plate into 96-well c-myc ELISA plate (Novex, Life Technologies Catalog #KH02041). Reconstitute c-myc standard with standard diluent buffer; standard curve range is 333 pg/ml-0 pg/ml, diluted 1:2 for 8-point dose curve. The rest of the assay was performed following the protocol from the c-myc ELISA kit. Data is analyzed and plotted using GraphPad Prism software. Compounds described in this application were assayed and c-myc suppression potency is listed in the following Table (A: DC50<10 nM; B: DC50 10-100 nM; C: DC50: 100-1000 nM; D: DC50>1000 nM)
In general terms: An ELISA detects its analyte on a solid surface through an enzyme-linked reagent.

Take `Cc1ncsc1-c1ccc(CNC(=O)[C@@H]2C[C@@H](O)CN2C(=O)[C@@H](NC(=O)COCCN2CCC(c3ccc([C@H](C)NC(=O)C[C@@H]4N=C(c5ccc(Cl)cc5)c5c(sc(C)c5C)-n5c(C)nnc54)cc3)CC2)C(C)(C)C)cc1` [Example 52]: the Emax came to 93% and the DC50 was in the range of 0.1 to 1 µM.

On to `Cc1ncsc1-c1ccc(CNC(=O)[C@@H]2C[C@@H](O)CN2C(=O)[C@@H](NC(=O)COCCOc2cccc(NC(=O)C[C@@H]3N=C(c4ccc(Cl)cc4)c4c(sc(C)c4C)-n4c(C)nnc43)c2)C(C)(C)C)cc1` [Example 81], for which the Emax amounted to 99% and the DC50 was in the range of 0.01 to 0.1 µM.

On to `Cc1ncsc1-c1ccc([C@H](C)NC(=O)[C@@H]2C[C@@H](O)CN2C(=O)[C@@H](NC(=O)Cc2ccc(-c3cn([C@@H](C)CNC(=O)C[C@@H]4N=C(c5ccc(Cl)cc5)c5c(sc(C)c5C)-n5c(C)nnc54)cn3)cc2)C(C)(C)C)cc1` [Example 341], for which the Emax is 98.5% and the DC50 is less than 0.01 µM.

Consider `Cc1ncsc1-c1ccc([C@H](C)NC(=O)[C@@H]2C[C@@H](O)CN2C(=O)[C@@H](NC(=O)c2cc3cc(O[C@H](C)CNC(=O)C[C@@H]4N=C(c5ccc(Cl)cc5)c5c(sc(C)c5C)-n5c(C)nnc54)ccc3o2)C(C)(C)C)cc1` [Example 206, (2S,4R)-1-[(2S)-2-[(5-{[(2R)-1-{2-[(9S)-7-(4-chlorophenyl)-4,5,13-trimethyl-3-thia-1,8,11,12-tetraazatricyclo[8.3.0.0^2,^6]trideca-2(6),4,7,10,12-pentaen-9-yl]acetamido}propan-2-yl]oxy}-1-benzofuran-2-yl)formamido]-3,3-dimethylbutanoyl]-4-hydroxy-N-[(1S)-1-[4-(4-methyl-1,3-thiazol-5-yl)phenyl]ethyl]pyrrolidine-2-carboxamide], for which the Emax turned out to be 90% and the DC50 is less than 0.01 µM.

In the case of `Cc1ncsc1-c1ccc([C@H](C)NC(=O)[C@@H]2C[C@@H](O)CN2C(=O)[C@H](NC(=O)CN2CCC(O[C@H]3C[C@H](NC(=O)C[C@@H]4N=C(c5ccc(Cl)cc5)c5c(sc(C)c5C)-n5c(C)nnc54)C3)CC2)C(C)(C)C)cc1` [Example 348], the Emax worked out at 46% and the DC50 is more than 1 µM.

For the compound `CNC[C@@H](NC(=O)[C@@H]1C[C@@H](O)CN1C(=O)[C@@H](NC(=O)COCCCOCCNC(=O)C[C@@H]1N=C(c2ccc(Cl)cc2)c2c(sc(C)c2C)-n2c(C)nnc21)C(C)(C)C)c1ccc(-c2scnc2C)cc1` [Example 111], the Emax was 47.3% and the DC50 is more than 1 µM.

Regarding `Cc1ncsc1-c1ccc([C@H](C)NC(=O)[C@@H]2C[C@@H](O)CN2C(=O)[C@@H](NC(=O)CN2CCN(C3CC4(C3)CN(C(=O)C[C@@H]3N=C(c5ccc(Cl)cc5)c5c(sc(C)c5C)-n5c(C)nnc53)C4)[C@@H](C)C2)C(C)(C)C)cc1` [Example 354, (2S,4R)-1-[(2S)-2-{2-[(3S)-4-(2-{2-[(9S)-7-(4-chlorophenyl)-4,5,13-trimethyl-3-thia-1,8,11,12-tetraazatricyclo[8.3.0.0^2,^6]trideca-2(6),4,7,10,12-pentaen-9-yl]acetyl}-2-azaspiro[3.3]heptan-6-yl)-3-methyl-piperazin-1-yl]acetamido}-3,3-dimethylbutanoyl]-4-hydroxy-N-[(1S)-1-[4-(4-methyl-1,3-thiazol-5-yl)phenyl]ethyl]pyrrolidine-2-carboxamide], the Emax was 100% and the DC50 was 0.01 to 0.1 µM.

For `Cc1ncoc1-c1ccc([C@H](C)NC(=O)[C@@H]2C[C@@H](O)CN2C(=O)[C@H](C(C)C)n2cc(-c3ccnc(O[C@H]4C[C@@H](NC(=O)C[C@@H]5N=C(c6ccc(Cl)cc6)c6c(sc(C)c6C)-n6c(C)nnc65)C4)c3)cn2)cc1` [Example 277], the Emax amounted to 94% and the DC50 lay within 0.01 to 0.1 µM.

With `Cc1ncsc1-c1ccc(CNC(=O)[C@@H]2C[C@@H](O)CN2C(=O)[C@H](C(C)C)n2cc(-c3ccnc(O[C@H](C)CNC(=O)C[C@@H]4N=C(c5ccc(Cl)cc5)c5c(sc(C)c5C)-n5c(C)nnc54)c3)cn2)cc1` [Example 168], the Emax is 92% and the DC50 fell in the range of 0.01 to 0.1 µM.

In the case of `Cc1sc2c(c1C)C(c1ccc(Cl)cc1)=N[C@@H](CC(=O)NCCOCCCOCC(=O)N[C@H](C(=O)N1C[C@H](O)C[C@H]1C(=O)NCc1ccc(C#N)cc1)C(C)(C)C)c1nnc(C)n1-2` [Example 75], the Emax is 58.5% and the DC50 was 0.1 to 1 µM.

As for `CC(=O)N[C@H](C(=O)N1C[C@H](O)C[C@H]1C(=O)NCc1ccc(-c2scnc2C)cc1OCCOCCCOc1ccc(C2=N[C@@H](CC(=O)Nc3ccccc3)c3nnc(C)n3-c3sc(C)c(C)c32)cc1)C(C)(C)C` [Example 181, (2S,4R)-1-[(2S)-2-acetamido-3,3-dimethylbutanoyl]-4-hydroxy-N-{[4-(4-methyl-1,3-thiazol-5-yl)-2-[2-(3-{4-[(9S)-4,5,13-trimethyl-9-[(phenylcarbamoyl)methyl]-3-thia-1,8,11,12-tetraazatricyclo[8.3.0.0^2,^6]trideca-2(6),4,7,10,12-pentaen-7-yl]phenoxy}propoxy)ethoxy]phenyl]methyl}pyrrolidine-2-carboxamide], the Emax worked out at 80.5% and the DC50 was 0.1 to 1 µM.

For the compound `Cc1ncsc1-c1ccc([C@H](C)NC(=O)[C@@H]2C[C@@H](O)CN2C(=O)[C@H](C(C)C)n2cc(-c3ccc(O[C@H]4C[C@H](NC(=O)C[C@@H]5N=C(c6ccc(Cl)cc6)c6c(sc(C)c6C)-n6c(C)nnc65)C4)nc3)cn2)cc1` [Example 269], the Emax turned out to be 96.4% and the DC50 is less than 0.01 µM.

Turning to `Cc1ncsc1-c1ccc([C@H](C)NC(=O)[C@@H]2C[C@@H](O)CN2C(=O)[C@@H](NC(=O)CCc2cc(F)cc(O[C@H](C)CNC(=O)C[C@@H]3N=C(c4ccc(Cl)cc4)c4c(sc(C)c4C)-n4c(C)nnc43)c2)C(C)(C)C)cc1` [Example 203], the Emax worked out at 92% and the DC50 was less than 0.01 µM.

On to `Cc1ncsc1-c1ccc(CNC(=O)[C@@H]2C[C@@H](O)CN2C(=O)[C@@H](c2cc(OCCC(F)(F)CCNC(=O)C[C@@H]3N=C(c4ccc(Cl)cc4)c4c(sc(C)c4C)-n4c(C)nnc43)no2)C(C)C)cc1` [Example 297, (2S,4R)-1-[(2R)-2-{3-[(5-{2-[(9S)-7-(4-chlorophenyl)-4,5,13-trimethyl-3-thia-1,8,11,12-tetraazatricyclo[8.3.0.0^2,^6]trideca-2(6),4,7,10,12-pentaen-9-yl]acetamido}-3,3-difluoropentyl)oxy]-1,2-oxazol-5-yl}-3-methylbutanoyl]-4-hydroxy-N-{[4-(4-methyl-1,3-thiazol-5-yl)phenyl]methyl}pyrrolidine-2-carboxamide], for which the Emax amounted to 97% and the DC50 is less than 0.01 µM.

Regarding `Cc1ncsc1-c1ccc([C@H](C)NC(=O)[C@@H]2C[C@@H](O)CN2C(=O)[C@@H](C(C)C)n2cc(-c3cnc(O[C@H]4C[C@H](NC(=O)C[C@@H]5N=C(c6ccc(Cl)cc6)c6c(sc(C)c6C)-n6c(C)nnc65)C4)cn3)cn2)cc1` [Example 283], the Emax was found to be 89.5% and the DC50 lay within 0.01 to 0.1 µM.

Consider `Cc1ncoc1-c1ccc(CNC(=O)[C@@H]2C[C@@H](O)CN2C(=O)[C@@H](NC(=O)COc2ccc(O[C@H]3C[C@@H](NC(=O)C[C@@H]4N=C(c5ccc(Cl)cc5)c5c(sc(C)c5C)-n5c(C)nnc54)C3)nc2)C(C)(C)C)cc1` [Example 258], for which the Emax came out at 87.5% and the DC50 lay in the range of 0.01 to 0.1 µM.

As to `Cc1ncsc1-c1ccc([C@H](C)NC(=O)[C@@H]2C[C@@H](O)CN2C(=O)[C@@H](NC(=O)COc2ccc(N3CCN(C(=O)C[C@@H]4N=C(c5ccc(Cl)cc5)c5c(sc(C)c5C)-n5c(C)nnc54)CC3)nc2)C(C)(C)C)cc1` [Example 288], the Emax came out at 98% and the DC50 was less than 0.01 µM.

In the case of `Cc1noc(-c2ccc([C@H](C)NC(=O)[C@@H]3C[C@@H](O)CN3C(=O)[C@@H](NC(=O)Cc3ccc(O[C@H]4C[C@H](NC(=O)C[C@@H]5N=C(c6ccc(Cl)cc6)c6c(sc(C)c6C)-n6c(C)nnc65)C4)cc3)C(C)(C)C)cc2)n1` [Example 275], the Emax came to 50.1% and the DC50 lay within 0.1 to 1 µM.

For the compound `Cc1ncsc1-c1ccc(CNC(=O)[C@@H]2C[C@@H](O)CN2C(=O)[C@@H](NC(=O)COCCCOCCCOc2ccc(NC(=O)C[C@@H]3N=C(c4ccccc4)c4c(sc(C)c4C)-n4c(C)nnc43)cc2)C(C)(C)C)cc1` [Example 55, (2S,4R)-1-[(2S)-3,3-dimethyl-2-(2-{3-[3-(4-{2-[(9S)-4,5,13-trimethyl-7-phenyl-3-thia-1,8,11,12-tetraazatricyclo[8.3.0.0^2,^6]trideca-2(6),4,7,10,12-pentaen-9-yl]acetamido}phenoxy)propoxy]propoxy}acetamido)butanoyl]-4-hydroxy-N-{[4-(4-methyl-1,3-thiazol-5-yl)phenyl]methyl}pyrrolidine-2-carboxamide], the Emax was 100% and the DC50 was less than 0.01 µM.
